Experimental data as given in patent US10336730B2, “Substituted glycine derived FXIA inhibitors” (BRISTOL-MYERS SQUIBB COMPANY, priority 2015, dated 2019).
pKi: −log10 of the molar value.

target: T1, purified human Factor XIa (Homo sapiens, UniProt P03951); test: Factor XIa enzyme inhibition assay (chromogenic substrate S-2366), Ki; type: biochemical; details: substrate S-2366, pH 7.4
T1 construct: purchased Haematologic Technologies
Description: The effectiveness of compounds of the present invention as inhibitors of the coagulation Factors XIa, VIIa, IXa, Xa, XIIa, plasma kallikrein, thrombin, chemytrypsin or trypsin can be determined using a relevant purified serine protease, respectively, and an appropriate synthetic substrate. The rate of hydrolysis of the chromogenic or fluorogenic substrate by the relevant serine protease was measured both in the absence and presence of compounds of the present invention. […] A decrease in the rate of absorbance or fluorescence change in the presence of inhibitor is indicative of enzyme inhibition. Such methods are known to one skilled in the art. The results of this assay are expressed as the inhibitory constant, Ki.
Factor XIa determinations were made in 50 mM HEPES buffer at pH 7.4 containing 145 mM NaCl, 5 mM KCl, and 0.1% PEG 8000 (polyethylene glycol; JT Baker or Fisher Scientific). Determinations were made using purified human Factor XIa at a final concentration of […] (Haematologic Technologies) and the synthetic substrate S-2366 (pyroGlu-Pro-Arg-pNA; CHROMOGENIX® or AnaSpec) at a concentration of 0.0002-0.001 M.
Values of Ki were determined by allowing the protease to react with the substrate in the presence of the inhibitor. Reactions were allowed to go for periods of 20-180 minutes (depending on the protease) and the velocities (rate of absorbance or fluorescence change versus time) were measured. The following relationships were used to calculate Ki values: (Vmax*S)/(Km+S) (vo−vs)/vs=I/(Ki*(1+S/Km)) for a competitive inhibitor with one binding site; or vs/vo=A+(B−A)/(1+(IC50/(I)^n)); and Ki=IC50/(1+S/Km) for a competitive inhibitor where: […]

T1 sequence (P03951 388-625 limits assumed): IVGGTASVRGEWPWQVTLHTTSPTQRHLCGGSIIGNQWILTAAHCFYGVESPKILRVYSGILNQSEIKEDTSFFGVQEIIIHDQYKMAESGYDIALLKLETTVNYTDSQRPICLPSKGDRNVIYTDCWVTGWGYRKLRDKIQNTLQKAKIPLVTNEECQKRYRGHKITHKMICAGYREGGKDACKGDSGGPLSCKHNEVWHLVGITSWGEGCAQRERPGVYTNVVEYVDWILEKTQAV
T1 sequence (P03951 19-387 partner limits assumed): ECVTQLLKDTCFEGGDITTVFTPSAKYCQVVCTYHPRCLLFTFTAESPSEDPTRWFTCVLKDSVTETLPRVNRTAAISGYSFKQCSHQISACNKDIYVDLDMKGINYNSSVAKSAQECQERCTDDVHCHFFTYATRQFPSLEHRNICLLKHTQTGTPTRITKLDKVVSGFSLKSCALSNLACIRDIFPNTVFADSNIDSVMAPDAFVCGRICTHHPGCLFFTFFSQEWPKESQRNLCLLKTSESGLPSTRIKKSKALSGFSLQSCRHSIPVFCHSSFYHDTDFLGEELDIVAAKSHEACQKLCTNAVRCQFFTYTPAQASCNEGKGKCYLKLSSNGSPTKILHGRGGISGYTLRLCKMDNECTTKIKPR

Q: `Cc1cnc(CNC(=O)[C@H](Cc2ccccc2)n2cnc(-c3cc(Cl)ccc3-n3cc(Cl)nn3)cc2=O)cn1` [Example 51, (S)-2-(4-(5-chloro-2-(4-chloro-1H-1,2,3-triazol-1-yl)phenyl)-6-oxopyrimidin-1(6H)-yl)-N-((5-methylpyrazin-2-yl)methyl)-3-phenylpropanamide] was tested. Which pKi did it give?
A: 5.83

Q: How did the pKi turn out when `O=C([C@H](Cc1ccccc1)n1cnc(-c2cc(Cl)ccc2-n2cc(Cl)nn2)cc1=O)N1CCC(c2ccc(Cl)cc2)CC1` [Example 52, (S)-6-(5-chloro-2-(4-chloro-1H-1,2,3-triazol-1-yl)phenyl)-3-(1-(4-(4-chlorophenyl)piperidin-1-yl)-1-oxo-3-phenylpropan-2-yl)pyrimidin-4(3H)-one] was run?
A: 5.35

Q: With `O=C1CN(C(=O)[C@H](Cc2ccccc2)n2cnc(-c3cc(Cl)ccc3-n3cc(Cl)nn3)cc2=O)CCN1` [Example 53, (S)-6-(5-chloro-2-(4-chloro-1H-1,2,3-triazol-1-yl)phenyl)-3-(1-oxo-1-(3-oxopiperazin-1-yl)-3-phenylpropan-2-yl)pyrimidin-4(3H)-one] as the compound, how does the pKi read?
A: 5.12

Q: With `CN1[C@@H]2CC[C@H]1C[C@@H](NC(=O)[C@H](Cc1ccccc1)n1cnc(-c3cc(Cl)ccc3-n3cc(Cl)nn3)cc1=O)C2` [Example 54, (S)-2-(4-(5-chloro-2-(4-chloro-1H-1,2,3-triazol-1-yl)phenyl)-6-oxopyrimidin-1(6H)-yl)-N-((1R,3r,5S)-8-methyl-8-azabicyclo[3.2.1]octan-3-yl)-3-phenylpropanamide] as the compound, how does the pKi read?
A: 5.40

Q: `O=C1CCN(C(=O)[C@H](Cc2ccccc2)n2cnc(-c3cc(Cl)ccc3-n3cc(Cl)nn3)cc2=O)CCN1` [Example 55, (S)-1-(2-(4-(5-chloro-2-(4-chloro-1H-1,2,3-triazol-1-yl)phenyl)-6-oxopyrimidin-1(6H)-yl)-3-phenylpropanoyl)-1,4-diazepan-5-one] was tested. Which pKi did it give?
A: 5.31

Q: With `O=C([C@H](Cc1ccccc1)n1cnc(-c2cc(Cl)ccc2-n2cc(Cl)nn2)cc1=O)N1CCC(CO)CC1` [Example 56, (S)-6-(5-chloro-2-(4-chloro-1H-1,2,3-triazol-1-yl)phenyl)-3-(1-(4-(hydroxymethyl)piperidin-1-yl)-1-oxo-3-phenylpropan-2-yl)pyrimidin-4(3H)-one] as the compound, how does the pKi read?
A: 5.13

Q: How did the pKi turn out when `O=C([C@H](Cc1ccccc1)n1cnc(-c2cc(Cl)ccc2-n2cc(Cl)nn2)cc1=O)N1CCN(c2ccncc2)CC1` [Example 57, (S)-6-(5-chloro-2-(4-chloro-1H-1,2,3-triazol-1-yl)phenyl)-3-(1-oxo-3-phenyl-1-(4-(pyridin-4-yl)piperazin-1-yl)propan-2-yl)pyrimidin-4(3H)-one] was run?
A: 5.31

Q: How did the pKi turn out when `COCCN(C)C(=O)[C@H](Cc1ccccc1)n1cnc(-c2cc(Cl)ccc2-n2cc(Cl)nn2)cc1=O` [Example 58, (S)-2-(4-(5-chloro-2-(4-chloro-1H-1,2,3-triazol-1-yl)phenyl)-6-oxopyrimidin-1(6H)-yl)-N-(2-methoxyethyl)-N-methyl-3-phenylpropanamide] was run?
A: 5.10

Q: With `NC(=O)CCNC(=O)[C@H](Cc1ccccc1)n1cnc(-c2cc(Cl)ccc2-n2cc(Cl)nn2)cc1=O` [Example 59, (S)-N-(3-amino-3-oxopropyl)-2-(4-(5-chloro-2-(4-chloro-1H-1,2,3-triazol-1-yl)phenyl)-6-oxopyrimidin-1(6H)-yl)-3-phenylpropanamide] as the compound, how does the pKi read?
A: 5.21

Q: With `CC(=O)N1CCN(C(=O)[C@H](Cc2ccccc2)n2cnc(-c3cc(Cl)ccc3-n3cc(Cl)nn3)cc2=O)CC1` [Example 60, (S)-3-(1-(4-acetylpiperazin-1-yl)-1-oxo-3-phenylpropan-2-yl)-6-(5-chloro-2-(4-chloro-1H-1,2,3-triazol-1-yl)phenyl)pyrimidin-4(3H)-one] as the compound, how does the pKi read?
A: 5.13

Q: How did the pKi turn out when `COC(=O)CCNC(=O)[C@H](Cc1ccccc1)n1cnc(-c2cc(Cl)ccc2-n2cc(Cl)nn2)cc1=O` [Example 61, methyl (S)-3-(2-(4-(5-chloro-2-(4-chloro-1H-1,2,3-triazol-1-yl)phenyl)-6-oxopyrimidin-1(6H)-yl)-3-phenylpropanamido)propanoate] was run?
A: 5.44
